Test results: PubChem BioAssay AID1918993 (Molecular Pharmacology Branch, DTP, NCI, 2023)
Values joined by “and” are separate entries in the source; they are usually repeats but may differ in a detail not shown here. Equal entries are not always repeated.

System: 233499-124-R-J3-PDC complex spheroid growth
Test: Anticancer human tumor 233499-124-R-J3-PDC patient-derived colon adenocarcinoma cell line growth inhibition [AhR]
Conditions: for viability, T/C: stronger effect = lower value
From the text: Multicellular complex tumor spheroid response to aryl hydrocarbon receptor antagonists in combination with a variety of drugs and investigational agents in selected tumor cell lines
The current study was undertaken to assess response to aryl hydrocarbon receptor antagonists in combination with standard-of-care drugs and investigational agents in solid tumor complex spheroid models. Complex spheroids include a stromal component modeled by human endothelial cells (HUVEC) and fibroblasts modeled by human mesenchymal stem cells (MSCs). The concentration ranges selected for each drug and investigational agent were based upon clinically achievable concentrations if the clinical Cmax of the agent was known.
Compounds. The drugs and investigational agents: BAY 2416964 (NSC825713), GNF351 (NSC835774), CH-223191 (NSC835775), CPI-455 (NSC825282), aza-TdCyd (NSC777586), decitabine (NSC127716), belinostat (NSC758774), entinostat (NSC756642), pevonedistat (NSC761192), tazemetostat (NSC777109), talazoparib (NSC765396), olaparib (NSC753686), selinexor (NSC780203), nedisertib (M3814, NSC802822), bortezomib (NSC756655), venetoclax (NSC766270), doxorubicin (NSC123127), elimusertib (BAY189344, NSC800525), ceralasertib (AZD6738, NSC777638), TAK-243 (NSC785004), alisertib (NSC759677), etoposide (NSC141540), topotecan (NSC609699), eribulin (NSC707389), gemcitabine (NSC613327), carboplatin (NSC241240), cisplatin (NSC119875), and SN-38 (NSC673596) were obtained from the National Cancer Institute (NCI) Developmental Therapeutics Program Chemical Repository (32). The FDA-approved anticancer drug set is available from the Developmental Therapeutics Program at https://dtp.cancer.gov/organization/dscb/obtaining/available plates.htm. […] The stock solutions were prepared in dimethyl sulfoxide (DMSO, Sigma-Aldrich, St. Louis, MO, cat. D2650), except for the platinum compounds which were prepared in saline (Quality Biological, Gaithersburg, MD, cat. 114-055-101), at 800-fold the tested concentration and stored at -70 degrees C prior to their use. All drugs and investigational agents were tested over a range starting from a high concentration at or near the clinical Cmax and decreasing in half-log increments. If the clinical Cmax for an agent had not been determined, the highest concentration tested was 10 microM (Table 1).
Cell Culture. All cells were maintained in an incubator at 37 degrees C and 5% CO2 with 95% humidity. The PDC lines were cultured according to standard operating procedures established by the NCI PDMR (https://pdmr.cancer.gov). Briefly, all PDCs were thawed and cultured in Matrigel-coated flasks prepared with a working solution of 1X Ham's F-12 nutrient mix, without supplementation (Invitrogen, Waltham, MA, cat. 11765054), 100 U/mL penicillin-streptomycin (Invitrogen, cat. 15140122), and 2.5% Matrigel (Corning Inc., Corning, NY, cat. 354248) for the first three passages. All PDCs were cultured in complete DMEM/F-12 media containing advanced DMEM/F-12 (Invitrogen, cat. 12634028), 4.9% defined fetal bovine serum, heat inactivated (HyClone Laboratories Inc., Logan, UT, cat. SH30070.03HI), 389 ng/mL hydrocortisone (Sigma-Aldrich, cat. H4001), 9.7 ng/mL human EGF recombinant protein (Invitrogen, cat. PHG0313), 23.4 microg/mL adenine (Sigma-Aldrich, cat. A2786), 97.3 U/mL penicillin-streptomycin (Invitrogen, cat. 15140122), 1.9 mM L-glutamine (Invitrogen, cat. 25030081), and 9.7 microM Y-27632 dihydrochloride (Tocris Bioscience, Bristol, United Kingdom, cat. 1254). The PDCs were cultured in complete DMEM/F12 media without 10 microM Y-27632 dihydrochloride for at least two passages prior to the screen. The established cell lines NCI-H1341 and […] were cultured in DMEM/F-12, HEPES (Invitrogen, cat. 11330032), 5% defined fetal bovine serum (HyClone Laboratories Inc., cat. SH30070.03), ITS premix universal culture supplement [insulin (5 microg/mL), transferrin (5 microg/mL), and selenious acid (5 ng/mL)] […]

[1] = curve of first compound, second compound 0.1 µM
[2] = curve of first compound, second compound 0.316 µM
[3] = curve of first compound, second compound 1 µM
[4] = curve of first compound, second compound 3.16 µM
[5] = curve of first compound, second compound 10 µM
[6] = second compound 0.1 µM, first compound 0.000316 µM
[7] = second compound 0.1 µM, first compound 0.001 µM
[8] = second compound 0.1 µM, first compound 0.00316 µM
[9] = second compound 0.1 µM, first compound 0.01 µM
[10] = second compound 0.1 µM, first compound 0.0316 µM
[11] = second compound 0.1 µM, first compound 0.1 µM
[12] = second compound 0.316 µM, first compound 0.000316 µM
[13] = second compound 0.316 µM, first compound 0.001 µM
[14] = second compound 0.316 µM, first compound 0.00316 µM
[15] = second compound 0.316 µM, first compound 0.01 µM
[16] = second compound 0.316 µM, first compound 0.0316 µM
[17] = second compound 0.316 µM, first compound 0.1 µM
[18] = second compound 1 µM, first compound 0.000316 µM
[19] = second compound 1 µM, first compound 0.001 µM
[20] = second compound 1 µM, first compound 0.00316 µM
[21] = second compound 1 µM, first compound 0.01 µM
[22] = second compound 1 µM, first compound 0.0316 µM
[23] = second compound 1 µM, first compound 0.1 µM
[24] = second compound 3.16 µM, first compound 0.000316 µM
[25] = second compound 3.16 µM, first compound 0.001 µM
[26] = second compound 3.16 µM, first compound 0.00316 µM
[27] = second compound 3.16 µM, first compound 0.01 µM
[28] = second compound 3.16 µM, first compound 0.0316 µM
[29] = second compound 3.16 µM, first compound 0.1 µM
[30] = second compound 10 µM, first compound 0.000316 µM
[31] = second compound 10 µM, first compound 0.001 µM
[32] = second compound 10 µM, first compound 0.00316 µM
[33] = second compound 10 µM, first compound 0.01 µM
[34] = second compound 10 µM, first compound 0.0316 µM
[35] = second compound 10 µM, first compound 0.1 µM
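Note: spheroids exposed to agents for seven days before reading.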

## Cn1ncnc1C1c2n[nH]c(=O)c3cc(F)cc(c23)NC1c1ccc(F)cc1 (configuration not stated) + Cc1cncc(-c2nc(NCCc3c[nH]c4ccccc34)c3ncn(C(C)C)c3n2)c1
[1]
  IC50: > 100 nM
[2]
  IC50: > 100 nM
[3]
  IC50: > 100 nM
[4]
  IC50: > 100 nM
[5]
  IC50: < 0.316 nM
[6]
  viability, T/C: 93.4%
[7]
  viability, T/C: 97.3%
[8]
  viability, T/C: 109%
[9]
  viability, T/C: 108%
[10]
  viability, T/C: 88.7%
[11]
  viability, T/C: 101%
[12]
  viability, T/C: 88.7%
[13]
  viability, T/C: 81.3%
[14]
  viability, T/C: 93.5%
[15]
  viability, T/C: 87.3%
[16]
  viability, T/C: 78.3%
[17]
  viability, T/C: 96.2%
[18]
  viability, T/C: 79.4%
[19]
  viability, T/C: 75.9%
[20]
  viability, T/C: 78.8%
[21]
  viability, T/C: 78%
[22]
  viability, T/C: 76.5%
[23]
  viability, T/C: 91.4%
[24]
  viability, T/C: 84.4%
[25]
  viability, T/C: 81.2%
[26]
  viability, T/C: 73.2%
[27]
  viability, T/C: 66.6%
[28]
  viability, T/C: 76.1%
[29]
  viability, T/C: 71.3%
[30]
  viability, T/C: 23.2%
[31]
  viability, T/C: 13.3%
[32]
  viability, T/C: 23.2%
[33]
  viability, T/C: 26.1%
[34]
  viability, T/C: 14.8%
[35]
  viability, T/C: 18.6%

## Nc1ncn(C2CC(O)C(CO)O2)c(=O)n1 (configuration not stated)
Compound 0.00316 µM
  viability, T/C: 100% and 95.5% and 94.7%
Compound 0.01 µM
  viability, T/C: 99.2% and 102% and 92.5%
Compound 0.0316 µM
  viability, T/C: 89.7% and 85.1% and 97%
Compound 0.1 µM
  viability, T/C: 94.7% and 85.4% and 97.1%
Compound 0.316 µM
  viability, T/C: 92.5% and 90.6% and 99.1%
Compound 1 µM
  viability, T/C: 86.9% and 92.4% and 92.5%
Curve of compound
  IC50: > 1000 nM

## CC1COCCN1c1cc(-c2ccnn2C)c2ccnc(-c3ccn[nH]3)c2n1 (configuration not stated) + Cc1cncc(-c2nc(NCCc3c[nH]c4ccccc34)c3ncn(C(C)C)c3n2)c1
[1]
  IC50: 546 nM
[2]
  IC50: 525 nM
[3]
  IC50: > 1000 nM
[4]
  IC50: 293 nM
[5]
  IC50: < 3.16 nM
[8]
  viability, T/C: 106%
[9]
  viability, T/C: 89.7%
[10]
  viability, T/C: 102%
[11]
  viability, T/C: 74.6%
Second compound 0.1 µM, first compound 0.316 µM
  viability, T/C: 62.6%
Second compound 0.1 µM, first compound 1 µM
  viability, T/C: 37.8%
[14]
  viability, T/C: 85.3%
[15]
  viability, T/C: 92.6%
[16]
  viability, T/C: 76.2%
[17]
  viability, T/C: 81.1%
Second compound 0.316 µM, first compound 0.316 µM
  viability, T/C: 60.2%
Second compound 0.316 µM, first compound 1 µM
  viability, T/C: 35.8%
[20]
  viability, T/C: 66.5%
[21]
  viability, T/C: 63%
[22]
  viability, T/C: 69.3%
[23]
  viability, T/C: 72.9%
Second compound 1 µM, first compound 0.316 µM
  viability, T/C: 53.5%
Second compound 1 µM, first compound 1 µM
  viability, T/C: 50.2%
[26]
  viability, T/C: 66.7%
[27]
  viability, T/C: 74.1%
[28]
  viability, T/C: 73.1%
[29]
  viability, T/C: 63.8%
Second compound 3.16 µM, first compound 0.316 µM
  viability, T/C: 49.4%
Second compound 3.16 µM, first compound 1 µM
  viability, T/C: 40.2%
[32]
  viability, T/C: 3.13%
[33]
  viability, T/C: 3.32%
[34]
  viability, T/C: 3.34%
[35]
  viability, T/C: 4.58%
Second compound 10 µM, first compound 0.316 µM
  viability, T/C: 3.11%
Second compound 10 µM, first compound 1 µM
  viability, T/C: 5.96%

## CC[C@@]1(O)C(=O)OCc2c1cc1n(c2=O)Cc2cc3c(CN(C)C)c(O)ccc3nc2-1 + Cc1ccccc1N=Nc1ccc(NC(=O)c2ccnn2C)c(C)c1
[1]
  IC50: > 100 nM
[2]
  IC50: > 100 nM
[3]
  IC50: > 100 nM
[4]
  IC50: > 100 nM
[5]
  IC50: > 100 nM
[6]
  viability, T/C: 88.5%
[7]
  viability, T/C: 105%
[8]
  viability, T/C: 113%
[9]
  viability, T/C: 109%
[10]
  viability, T/C: 79.4%
[11]
  viability, T/C: 92.1%
[12]
  viability, T/C: 114%
[13]
  viability, T/C: 110%
[14]
  viability, T/C: 90.8%
[15]
  viability, T/C: 98.8%
[16]
  viability, T/C: 111%
[17]
  viability, T/C: 91.2%
[18]
  viability, T/C: 97.9%
[19]
  viability, T/C: 105%
[20]
  viability, T/C: 89.5%
[21]
  viability, T/C: 93.2%
[22]
  viability, T/C: 87.3%
[23]
  viability, T/C: 95%
[24]
  viability, T/C: 111%
[25]
  viability, T/C: 105%
[26]
  viability, T/C: 96.1%
[27]
  viability, T/C: 98.2%
[28]
  viability, T/C: 95.9%
[29]
  viability, T/C: 87.9%
[30]
  viability, T/C: 102%
[31]
  viability, T/C: 113%
[32]
  viability, T/C: 95.5%
[33]
  viability, T/C: 104%
[34]
  viability, T/C: 101%
[35]
  viability, T/C: 106%
